Converted amounts (≈) assume the structure as drawn.
Tests used:
Assay in all cases: minimal inhibitory concentration, two-fold agar dilution
Format in all cases: cell-based
[1] = test system: Micrococcus luteus ATCC 9341; conditions: ATCC9341, Muller-Hinton agar, 37°C, 20 hours, read-out: MIC values against the standard strains
Summary of the method: (§1)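 Compounds were serially diluted two-fold into Mueller-Hinton agar, and each plate was spot-inoculated with the test strain at 10⁷ CFU per ml. Plates were incubated at 37°C for 20 hours before MIC values were read.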

[2] = test system: Enterobacter cloacae ATCC 27508; conditions: ATCC27508, Muller-Hinton agar, 37°C, 20 hours, read-out: MIC values against the standard strains
Summary of the method: as §1

[3] = test system: Serratia marcescens ATCC 27117; conditions: ATCC27117, Muller-Hinton agar, 37°C, 20 hours, read-out: MIC values against the standard strains
Summary of the method: as §1

[4] = test system: Staphylococcus aureus ATCC 10537; conditions: ATCC10537, Muller-Hinton agar, 37°C, 20 hours, read-out: MIC values against the standard strains
Summary of the method: as §1

[5] = test system: Streptococcus faecalis ATCC 29212; conditions: Enterococcus faecalis, ATCC29212; Muller-Hinton agar; 37°C; 20 hours; read-out: MIC values against the standard strains
Summary of the method: as §1

[6] = test system: Enterobacter aerogenes ATCC 29751; conditions: Klebsiella aerogenes, ATCC29751; Muller-Hinton agar; 37°C; 20 hours; read-out: MIC values against the standard strains
Summary of the method: as §1

[7] = test system: Pseudomonas aeruginosa ATCC 25619; conditions: ATCC25619, Muller-Hinton agar, 37°C, 20 hours, read-out: MIC values against the standard strains
Summary of the method: as §1

[8] = test system: Providencia rettgeri ATCC 9250; conditions: ATCC9250, Muller-Hinton agar, 37°C, 20 hours, read-out: MIC values against the standard strains
Summary of the method: as §1

[9] = test system: Klebsiella pneumoniae ATCC 10031; conditions: ATCC10031, Muller-Hinton agar, 37°C, 20 hours, read-out: MIC values against the standard strains
Summary of the method: as §1

[10] = test system: Proteus mirabilis ATCC 25933; conditions: ATCC25933, Muller-Hinton agar, 37°C, 20 hours, read-out: MIC values against the standard strains
Summary of the method: as §1

[11] = test system: Escherichia coli ATCC 25922; conditions: ATCC25922, Muller-Hinton agar, 37°C, 20 hours, read-out: MIC values against the standard strains
Summary of the method: as §1

[12] = test system: Staphylococcus epidermidis ATCC 12228; conditions: ATCC12228, Muller-Hinton agar, 37°C, 20 hours, read-out: MIC values against the standard strains
Summary of the method: as §1

[13] = test system: Acinetobacter calcoaceticus ATCC 15437; conditions: ATCC15437, Muller-Hinton agar, 37°C, 20 hours, read-out: MIC values against the standard strains
Summary of the method: as §1

[14] = test system: Shigella flexneri ATCC 11836; conditions: ATCC11836, Muller-Hinton agar, 37°C, 20 hours, read-out: MIC values against the standard strains
Summary of the method: as §1

[15] = test system: Bacillus megaterium ATCC 9885; conditions: Priestia megaterium, ATCC9885; Muller-Hinton agar; 37°C; 20 hours; read-out: MIC values against the standard strains
Summary of the method: as §1

[16] = test system: Proteus vulgaris ATCC 6059; conditions: ATCC6059, Muller-Hinton agar, 37°C, 20 hours, read-out: MIC values against the standard strains
Summary of the method: as §1

[17] = test system: Salmonella typhimurium ATCC 14028; conditions: Salmonella enterica; Muller-Hinton agar; 37°C; 20 hours; read-out: MIC values against the standard strains
Summary of the method: as §1

[18] = test system: Pseudomonas aeruginosa ATCC 10145; conditions: ATCC10145, Muller-Hinton agar, 37°C, 20 hours, read-out: MIC values against the standard strains
Summary of the method: as §1

[19] = test system: Bacillus cereus ATCC 11778; conditions: ATCC11778, Muller-Hinton agar, 37°C, 20 hours, read-out: MIC values against the standard strains
Summary of the method: as §1

[20] = test system: Pseudomonas aeruginosa ATCC 27853; conditions: ATCC27853, Muller-Hinton agar, 37°C, 20 hours, read-out: MIC values against the standard strains
Summary of the method: as §1

[21] = test system: Escherichia coli ATCC 10536; conditions: ATCC10536, Muller-Hinton agar, 37°C, 20 hours, read-out: MIC values against the standard strains
Summary of the method: as §1

[22] = test system: Staphylococcus aureus ATCC 6538p; conditions: ATCC6538P, Muller-Hinton agar, 37°C, 20 hours, read-out: MIC values against the standard strains
Summary of the method: as §1

[23] = test system: Shigella sonnei ATCC 11060; conditions: ATCC11060, Muller-Hinton agar, 37°C, 20 hours, read-out: MIC values against the standard strains
Summary of the method: as §1

[24] = test system: Citrobacter freundii ATCC 8090; conditions: ATCC8090, Muller-Hinton agar, 37°C, 20 hours, read-out: MIC values against the standard strains
Summary of the method: as §1

[25] = test system: Morganella morganii ATCC 8076h; conditions: ATCC8076H, Muller-Hinton agar, 37°C, 20 hours, read-out: MIC values against the standard strains
Summary of the method: as §1

SMILES | MIC [1] [µg/mL] | MIC [2] [µg/mL] | MIC [3] [µg/mL] | MIC [4] [µg/mL] | MIC [5] [µg/mL] | MIC [6] [µg/mL] | MIC [7] [µg/mL] | MIC [8] [µg/mL] | MIC [9] [µg/mL] | MIC [10] [µg/mL] | MIC [11] [µg/mL] | MIC [12] [µg/mL] | MIC [13] [µg/mL] | MIC [14] [µg/mL] | MIC [15] [µg/mL] | MIC [16] [µg/mL] | MIC [17] [µg/mL] | MIC [18] [µg/mL] | MIC [19] [µg/mL] | MIC [20] [µg/mL] | also measured
CCO/N=C(\C(=O)N[C@@H]1C(=O)N2C(C(=O)[O-])=C(CSc3nc(N)c(N)c(N)[n+]3C)CS[C@H]12)c1nsc(N)n1 [Example 5] | 0.031 (≈ 0.0533 µM) | 0.13 (≈ 0.223 µM) | 0.25 (≈ 0.43 µM) | 0.25 (≈ 0.43 µM) | 32 (≈ 55 µM) | 0.016 (≈ 0.0275 µM) | 0.5 (≈ 0.86 µM) | ≤ 0.008 | 0.016 (≈ 0.0275 µM) | 0.5 (≈ 0.86 µM) | 0.063 (≈ 0.108 µM) | 0.25 (≈ 0.43 µM) | 2 (≈ 3.44 µM) | 0.031 (≈ 0.0533 µM) | 0.063 (≈ 0.108 µM) | 0.5 (≈ 0.86 µM) | 0.25 (≈ 0.43 µM) | 4 (≈ 6.88 µM) | 16 (≈ 27.5 µM) | 2 (≈ 3.44 µM) | MIC [21]: 0.063 µg/mL (≈ 0.108 µM); MIC [22]: 0.5 µg/mL (≈ 0.86 µM); MIC [23]: 0.25 µg/mL (≈ 0.43 µM); MIC [24]: 0.13 µg/mL (≈ 0.223 µM); MIC [25]: ≤ 0.008 µg/mL
CCO/N=C(\C(=O)N[C@@H]1C(=O)N2C(C(=O)[O-])=C(CSc3nc(N)cc[n+]3C)CS[C@H]12)c1nsc(N)n1 [Example 6, 7-[(Z)-2-(5-amino-1,2,4-thiadiazol-3-yl)-2-(ethoxyimino)acetamido]-3-(4-amino-1-methylpyrimidinium-2-yl)thiomethyl-3-cephem-4-carboxylate] | 0.063 (≈ 0.114 µM) | 0.063 (≈ 0.114 µM) | 0.5 (≈ 0.906 µM) | 0.13 (≈ 0.236 µM) | 32 (≈ 58 µM) | 0.016 (≈ 0.029 µM) | 0.5 (≈ 0.906 µM) | ≤ 0.008 | ≤ 0.008 | 0.5 (≈ 0.906 µM) | 0.063 (≈ 0.114 µM) | 0.13 (≈ 0.236 µM) | 1 (≈ 1.81 µM) | 0.063 (≈ 0.114 µM) | 0.063 (≈ 0.114 µM) | 0.5 (≈ 0.906 µM) | 0.5 (≈ 0.906 µM) | 4 (≈ 7.25 µM) | 16 (≈ 29 µM) | 2 (≈ 3.63 µM) | MIC [21]: 0.063 µg/mL (≈ 0.114 µM); MIC [22]: 0.13 µg/mL (≈ 0.236 µM); MIC [23]: 0.25 µg/mL (≈ 0.453 µM); MIC [24]: 0.063 µg/mL (≈ 0.114 µM); MIC [25]: ≤ 0.008 µg/mL
CCO/N=C(\C(=O)N[C@@H]1C(=O)N2C(C(=O)[O-])=C(CSc3nc(N)cc(OC)[n+]3C)CS[C@H]12)c1csc(N)n1 [Example 18, 7-[(Z)-2-(2-aminothiazol-4-yl)-2-(ethoxyimino)acetamido]-3-(4-amino-6-methoxy-1-methylpyrimidinium-2-yl)thiomethyl-3-cephem-4-carboxylate] | 0.016 (≈ 0.0276 µM) | ≤ 0.008 | 0.5 (≈ 0.861 µM) | 0.25 (≈ 0.431 µM) | 16 (≈ 27.6 µM) | 1 (≈ 1.72 µM) | 2 (≈ 3.44 µM) | ≤ 0.008 | ≤ 0.008 | 0.5 (≈ 0.861 µM) | 0.25 (≈ 0.431 µM) | 0.13 (≈ 0.224 µM) | 8 (≈ 13.8 µM) | 0.13 (≈ 0.224 µM) | 0.13 (≈ 0.224 µM) | 0.5 (≈ 0.861 µM) | 0.5 (≈ 0.861 µM) | 16 (≈ 27.6 µM) | 32 (≈ 55.1 µM) | 16 (≈ 27.6 µM) | MIC [21]: 0.13 µg/mL (≈ 0.224 µM); MIC [22]: 0.5 µg/mL (≈ 0.861 µM); MIC [23]: 0.25 µg/mL (≈ 0.431 µM); MIC [24]: 0.13 µg/mL (≈ 0.224 µM); MIC [25]: ≤ 0.008 µg/mL
CCO/N=C(\C(=O)N[C@@H]1C(=O)N2C(C(=O)[O-])=C(CSc3nc(N)c(N)c(N)[n+]3C)CS[C@H]12)c1csc(N)n1 [Example 3, 7-[(Z)-2-(aminothiazol-4-yl)-2-(ethoxyimino)acetamido]-3-(4,5,6-triamino-1-methylpyrimidinium-2-yl)thiomethyl-3-cephem-4-carboxylate] | 0.031 (≈ 0.0534 µM) | 0.016 (≈ 0.0276 µM) | 0.25 (≈ 0.431 µM) | 0.25 (≈ 0.431 µM) | 64 (≈ 110 µM) | 0.5 (≈ 0.861 µM) | 0.5 (≈ 0.861 µM) | ≤ 0.008 | ≤ 0.008 | 0.25 (≈ 0.431 µM) | 0.063 (≈ 0.108 µM) | 0.13 (≈ 0.224 µM) | 8 (≈ 13.8 µM) | 0.063 (≈ 0.108 µM) | 0.031 (≈ 0.0534 µM) | 0.25 (≈ 0.431 µM) | 0.5 (≈ 0.861 µM) | 8 (≈ 13.8 µM) | 32 (≈ 55.1 µM) | 4 (≈ 6.89 µM) | MIC [21]: 0.063 µg/mL (≈ 0.108 µM); MIC [22]: 0.5 µg/mL (≈ 0.861 µM); MIC [23]: 0.25 µg/mL (≈ 0.431 µM); MIC [24]: 0.063 µg/mL (≈ 0.108 µM); MIC [25]: ≤ 0.008 µg/mL
CO/N=C(\C(=O)N[C@@H]1C(=O)N2C(C(=O)[O-])=C(CSc3nc(N)cc[n+]3C)CS[C@H]12)c1csc(N)n1 [Example 8, 7-[(Z)-2-(2-aminothiazol-4-yl)-2-(methoxyimino)acetamido]-3-(4-amino-1-methylpyrimidinium-2-yl)thiomethyl-3-cephem-4-carboxylate] | 0.13 (≈ 0.242 µM) | ≤ 0.008 | 0.25 (≈ 0.466 µM) | 0.25 (≈ 0.466 µM) | 64 (≈ 119 µM) | ≤ 0.008 | 8 (≈ 14.9 µM) | ≤ 0.008 | 0.016 (≈ 0.0298 µM) | 0.25 (≈ 0.466 µM) | 0.063 (≈ 0.117 µM) | 0.13 (≈ 0.242 µM) | 8 (≈ 14.9 µM) | 0.063 (≈ 0.117 µM) | 0.13 (≈ 0.242 µM) | 0.25 (≈ 0.466 µM) | 0.25 (≈ 0.466 µM) | 64 (≈ 119 µM) | 64 (≈ 119 µM) | 64 (≈ 119 µM) | MIC [21]: 0.063 µg/mL (≈ 0.117 µM); MIC [22]: 0.5 µg/mL (≈ 0.932 µM); MIC [23]: 0.13 µg/mL (≈ 0.242 µM); MIC [24]: 0.063 µg/mL (≈ 0.117 µM); MIC [25]: ≤ 0.008 µg/mL
